Data published in article PMC7395068, “The evolution of strategies to minimise the risk of human drug-induced liver injury (DILI) in drug discovery and development” (Archives of Toxicology, 2020).
Like-named read-outs stand apart in the source and are kept apart here.

Key:
[1] = cited from earlier work
[2] = system: HepG2 cells; settings: cited from earlier work
[3] = system: PHH; settings: cited from earlier work
[4] = system: hLiMTs; settings: cited from earlier work
[5] = cited from earlier work; remark: listed apart in the source
[6] = system: human hepatocytes; settings: cited from earlier work
[7] = system: PHH spheroids; settings: In vitro Assay; ref Vorrink 2018; cited from earlier work
[8] = system: rBsep; settings: cited from earlier work
[9] = system: isolated mouse liver mitochondria; settings: In vitro Assay; ref Porceddu 2012; cited from earlier work
[10] = system: primary human hepatocytes, NIH3T3 fibroblasts, BSEP, CYP3A4; settings: In vitro Assay; ref Schadt 2015; cited from earlier work
[11] = system: THLE or HepG2 cells, isolated mitochondria, BSEP; settings: In vitro Assay; ref Aleo 2019; cited from earlier work
[12] = system: hLiMTs; test: Combined HCI (HCS) and cellular ATP 3D assay in hLiMTs; settings: Homo sapiens
[13] = system: HepaRG spheroids; test: Combined HCI (HCS) and cellular ATP 3D assay in HepaRG spheroids; settings: Homo sapiens, HepaRG
[14] = system: HepG2 cells; settings: In vitro Assay; ref Persson 2013; cited from earlier work
[15] = In vitro Assay, ref O'Brien 2006
[16] = In vitro Assay, ref Proctor 2017
[17] = In vitro Assay, ref Dawson 2012

SMILES: CC(C)c1nc(N(C)S(C)(=O)=O)nc(-c2ccc(F)cc2)c1/C=C/[C@@H](O)C[C@@H](O)CC(=O)O [rosuvastatin]
- DILI +VE (5-8), DILI -VE (-4) ([1]; ref Chen 2016): +VE
- DILI severity category ([1]; ref Chen 2016): vLess-DILI-Concern
- Structural based (HCI) [2, 15]: +VE (lowest HCI endpoint IC50 (or in the absence of dose–response < 100 µM) < 30 × total human plasma exposure levels (Cmax.tot))
- PHH ATP <100uM [3, 16]: +VE (IC50 threshold of 100 µM)
- hLiMTs ATP <100uM [4, 16]: +VE (IC50 threshold of 100 µM)
- In vivo DILI ([5]; ref O'Brien 2006): +VE
- In vivo DILI ([5]; ref Proctor 2017): +VE

SMILES: Cc1cc(C2CCCCC2)n(O)c(=O)c1 [ciclopirox]
- Structural based (HCI) ([6]; In vitro Assay, ref Xu 2008): -VE
- hLiMTs ATP <20 x Cmax [7]: -VE
- In vivo DILI ([5]; ref Vorrink 2018): -VE
- In vivo DILI ([5]; ref Xu 2008): -VE

SMILES: COC(=O)C1=C(C)NC(C)=C(C(=O)OC)C1c1ccccc1[N+](=O)[O-] [nifedipine]
- Inhibition of rBsep cutoff<3 [8]: +VE

SMILES: CCCSc1ccc2nc(NC(=O)OC)[nH]c2c1 [albendazole]
- DILI +VE (5-8), DILI -VE (-4) ([1]; ref Chen 2016): +VE
- DILI severity category ([1]; ref Chen 2016): vMost-DILI-Concern
- Structural based (HCI) [6]: +VE
- hLiMTs ATP <20 x Cmax [7]: -VE
- In vivo DILI ([5]; ref Vorrink 2018): +VE
- In vivo DILI ([5]; ref Xu 2008): +VE

SMILES: CCc1c(C)[nH]c2c1C(=O)C(CN1CCOCC1)CC2 (stereo not shown) [molindone]
- Structural based (HCI) ([6]; In vitro Assay, ref Xu 2008): -VE
- hLiMTs ATP <20 x Cmax [7]: -VE
- In vivo DILI ([5]; ref Vorrink 2018): +VE
- In vivo DILI ([5]; ref Xu 2008): +VE

SMILES: N=C(N)NC(=O)c1nc(Cl)c(N)nc1N [amiloride]
- DILI +VE (5-8), DILI -VE (-4) ([1]; in vivo): +VE
- DILI severity category ([1]; in vivo): vLess-DILI-Concern
- hLiMTs ATP <20 x Cmax [7]: -VE
- In vivo DILI ([5]; in vivo): -VE

SMILES: O=C(c1ccc(OCCN2CCCCC2)cc1)c1c(-c2ccc(O)cc2)sc2cc(O)ccc12 [raloxifene]
- DILI +VE (5-8), DILI -VE (-4) ([1]; ref Chen 2016): -VE
- DILI severity category ([1]; ref Chen 2016): vNo-DILI-Concern
- Structural based (HCI) ([6]; In vitro Assay, ref Xu 2008): -VE
- hLiMTs ATP <20 x Cmax [7]: -VE
- In vivo DILI ([5]; […]): -VE
- In vivo DILI ([5]; ref Vorrink 2018): -VE
- In vivo DILI ([5]; ref Xu 2008): -VE

SMILES: C[C@]12CC[C@@H]3c4ccc(O)cc4CC[C@H]3[C@@H]1CC[C@@H]2O [beta-estradiol]
- PHH ATP <100uM [3, 16]: -VE
- hLiMTs ATP <100uM [4, 16]: +VE (IC50 threshold of 100 µM)
- in vitro data EC2<=1x Cmax [9]: -VE
- in vitro data EC20<=2uM [9]: -VE

SMILES: CC(C)COCC(CN(Cc1ccccc1)c1ccccc1)N1CCCC1 (stereo not shown) [bepridil]
- Structural based (HCI) ([6]; In vitro Assay, ref Xu 2008): +VE
- hLiMTs ATP <20 x Cmax [7]: +VE (IC20 < 20 × Cmax.tot cut-off)
- In vivo DILI ([5]; ref Vorrink 2018): +VE
- In vivo DILI ([5]; ref Xu 2008): +VE

SMILES: CN[C@@H]1[C@H](O)[C@H](NC)[C@H]2O[C@@]3(O)C(=O)C[C@@H](C)O[C@H]3O[C@@H]2[C@H]1O [spectinomycin]
- DILI +VE (5-8), DILI -VE (-4) ([1]; ref Chen 2016): -VE
- DILI severity category ([1]; ref Chen 2016): Ambiguous DILI-concern
- PHH ATP <100uM [3, 16]: -VE
- hLiMTs ATP <100uM [4, 16]: -VE
- In vivo DILI ([5]; ref Porceddu 2012): +VE
- In vivo DILI ([5]; ref Proctor 2017): +VE
- in vitro data EC2<=1x Cmax [9]: +VE
- in vitro data EC20<=2uM [9]: +VE

SMILES: CC(C)(C)c1ccc(C(O)CCCN2CCC(C(O)(c3ccccc3)c3ccccc3)CC2)cc1 (stereo not shown) [terfenadine]
- hLiMTs ATP <20 x Cmax [7]: -VE

SMILES: N[C@@H](Cc1ccc(O)c(O)c1)C(=O)O [levodopa]
- Structural based (HCI) ([6]; In vitro Assay, ref Xu 2008): -VE
- hLiMTs ATP <20 x Cmax [7]: -VE

SMILES: CC(C)(C)NC[C@H](O)COc1ccccc1C1CCCC1 [penbutolol]
- DILI +VE (5-8), DILI -VE (-4) ([1]; ref Chen 2016): -VE
- DILI severity category ([1]; ref Chen 2016): vNo-DILI-Concern
- Cellular toxicity (3T3 cells) [10]: -VE
- Combined Assay [10]: -VE
- GSH adduct HML [10]: -VE
- Hepatocyte cellular toxicity [10]: -VE
- MitoTox 3T3 [10]: -VE
- TDI CYP3A4 [10]: -VE
- hBSEP inhibition [10]: -VE
- Partition Hybrid HRM Score [11]: -VE
- Ro2 Hybrid HRM Score [11]: -VE
- PHH ATP <100uM [3, 16]: +VE (IC50 threshold of 100 µM)
- hLiMTs ATP <100uM [4, 16]: +VE (IC50 threshold of 100 µM)
- In vivo DILI ([5]; ref Aleo 2019): -VE
- In vivo DILI ([5]; ref Proctor 2017): -VE
- In vivo DILI ([5]; ref Schadt 2015): -VE

SMILES: CCC1(c2ccc(N)cc2)CCC(=O)NC1=O (stereo not shown) [aminoglutethimide]
- Structural based (HCI) ([6]; In vitro Assay, ref Xu 2008): -VE
- hLiMTs ATP <20 x Cmax [7]: -VE
- In vivo DILI ([5]; ref Vorrink 2018): -VE
- In vivo DILI ([5]; ref Xu 2008): -VE

SMILES: CCN(CC)CCCC(C)Nc1c2ccc(Cl)cc2nc2ccc(OC)cc12 (stereo not shown) [quinacrine]
- Structural based (HCI) [2]: +VE (key: +VE: lowest HCI endpoint IC50 (or in the absence of dose–response < 100 µM) < 30 × total human plasma exposure levels (Cmax.tot))
- PHH ATP <100uM [3]: +VE (key: +VE: IC50 threshold of 100 µM)
- hLiMTs ATP <100uM [4]: +VE (key: +VE: IC50 threshold of 100 µM)
- In vivo DILI ([5]; in vivo): +VE

SMILES: Clc1ccc(COC(Cn2ccnc2)c2ccc(Cl)cc2Cl)c(Cl)c1 (stereo not shown) [miconazole]
- Structural based (HCI) ([6]; In vitro Assay, ref Xu 2008): -VE
- hLiMTs ATP <20 x Cmax [7]: -VE

SMILES: NCCCC[C@H](N[C@@H](CCc1ccccc1)C(=O)O)C(=O)N1CCC[C@H]1C(=O)O [lisinopril]
- Structural based (HCI) ([6]; In vitro Assay, ref Xu 2008): -VE
- hLiMTs ATP <20 x Cmax [7]: +VE (IC20 < 20 × Cmax.tot cut-off)

SMILES: O=C(C1CCCCC1)N1CC(=O)N2CCc3ccccc3C2C1 (stereo not shown) [praziquantel]
- Structural based (HCI) [2, 15]: +VE
- Inhibition of rBsep cutoff<1& cmax u>.2 [8, 17]: -VE
- Inhibition of rBsep cutoff<3 [8, 17]: +VE

SMILES: CC(C)NCC(O)COc1cccc2[nH]ccc12 (stereo not shown) [pindolol]
- DILI +VE (5-8), DILI -VE (-4) ([1]; ref Chen 2016): -VE
- DILI severity category ([1]; ref Chen 2016): vNo-DILI-Concern
- hLiMTs ATP <20 x Cmax [7]: -VE
- In vivo DILI ([5]; ref Vorrink 2018): -VE
- In vivo DILI ([5]; ref Xu 2008): -VE

SMILES: COc1cc2c(cc1OC)C(=O)C(CC1CCN(Cc3ccccc3)CC1)C2 (stereo not shown) [donepezil]
- Inhibition of rBsep cutoff<3 [8]: -VE
- AC50 ([12]; read-out: ATP endpoint AC50): 9.76 µM
- minimal effective concentration ([12]; read-out: ATP endpoint MEC): 3.17 µM
- AC50 ([12]; read-out: HCS endpoint AC50): 7.19 µM
- minimal effective concentration ([12]; read-out: HCS endpoint MEC): 0.487 µM
- minimal effective concentration ([13]; read-out: ATP endpoint MEC): 6.49 µM
- minimal effective concentration ([13]; read-out: HCS endpoint MEC): 9.43 µM

SMILES: COCCOC(=O)C1=C(C)NC(C)=C(C(=O)OC(C)C)C1c1cccc([N+](=O)[O-])c1 (stereo not shown) [nimodipine]
- Structural based (HCI) ([6]; In vitro Assay, ref Xu 2008): +VE
- hLiMTs ATP <20 x Cmax [7]: +VE (IC20 < 20 × Cmax.tot cut-off)

SMILES: COc1ccc([C@@H]2Sc3ccccc3N(CCN(C)C)C(=O)[C@@H]2OC(C)=O)cc1 [diltiazem]
- Structural based (HCI) ([6]; In vitro Assay, ref Xu 2008): -VE
- hLiMTs ATP <20 x Cmax [7]: -VE

SMILES: CCN(CC)C(=O)N1CCN(C)CC1 [diethylcarbamazine]
- Structural based (HCI) ([6]; In vitro Assay, ref Xu 2008): -VE
- hLiMTs ATP <20 x Cmax [7]: -VE

SMILES: CC(C)c1c(C(=O)Nc2ccccc2)c(-c2ccccc2)c(-c2ccc(F)cc2)n1CC[C@@H](O)C[C@@H](O)CC(=O)O [atorvastatin]
- PHH ATP <100uM [3, 16]: -VE
- hLiMTs ATP <100uM [4, 16]: +VE (IC50 threshold of 100 µM)
- in vitro data EC20<=2uM [9]: +VE

SMILES: [H]/N=C(/N)N/C(=N/[H])NCCc1ccccc1 [phenformin]
- Structural based (HCI) [2, 15]: +VE (lowest HCI endpoint IC50 (or in the absence of dose–response < 100 µM) < 30 × total human plasma exposure levels (Cmax.tot))
- PHH ATP <100uM [3, 16]: +VE (IC50 threshold of 100 µM)
- hLiMTs ATP <100uM [4, 16]: +VE (IC50 threshold of 100 µM)
- In vivo DILI ([5]; ref O'Brien 2006): -VE
- In vivo DILI ([5]; ref Proctor 2017): +VE

SMILES: COc1ccc2cc([C@H](C)C(=O)O)ccc2c1 [naproxen]
- Structural based (HCI) [2, 15]: -VE
- Cluser analysis [14]: -VE
- Structural based (HCI) [14]: -VE
- PHH ATP <100uM [3, 16]: -VE
- hLiMTs ATP <100uM [4, 16]: -VE

SMILES: CN(C)CCC(c1ccc(Br)cc1)c1ccccn1 (stereo not shown) [brompheniramine]
- Structural based (HCI) ([6]; In vitro Assay, ref Xu 2008): -VE
- hLiMTs ATP <20 x Cmax [7]: -VE

SMILES: O=C(O)c1cc(/N=N/c2ccc(S(=O)(=O)Nc3ccccn3)cc2)ccc1O [sulfasalazine]
- Structural based (HCI) ([6]; In vitro Assay, ref Xu 2008): +VE
- hLiMTs ATP <20 x Cmax [7]: +VE (IC20 < 20 × Cmax.tot cut-off)
